# Numbers after ± are expanded uncertainties.
# What was measured:
# [1] = for mass density / viscosity: 101.33 kPa, Liquid; for mass density: Vibrating tube method; for viscosity: Falling or rolling sphere viscometry
# [2] = refractive index (Na D-line) (dimensionless); conditions: 101.33 kPa, Liquid, Standard Abbe refractometry
compound,measurement,setting,value
CC(C)=O [acetone],mass density,[1]; 298.15 K,785.23 ± 1 kg/m3
same,refractive index,[2]; 298.15 K,1.356 ± 0.0007
c1ccsc1 [thiophene],mass density,[1]; 298.15 K,1058.64 ± 1 kg/m3
same,refractive index,[2]; 298.15 K,1.52527 ± 0.0007
CCCC[n+]1cccc(C#N)c1.O=S(=O)([N-]S(=O)(=O)C(F)(F)F)C(F)(F)F [1-butyl-3-cyanopyridinium bis(trifluoromethylsulfonyl)imide],mass density,[1]; 298.15 K,1479.79 ± 2.1 kg/m3
CCCC[n+]1ccc(C#N)cc1.O=S(=O)([N-]S(=O)(=O)C(F)(F)F)C(F)(F)F [1-butyl-4-cyanopyridinium bis(trifluoromethylsulfonyl)imide],mass density,[1]; 278.15 K,1492.99 ± 2.1 kg/m3
same,mass density,[1]; 288.15 K,1483.58 ± 2.1 kg/m3
same,mass density,[1]; 298.15 K,1474.23 ± 2.1 kg/m3
same,viscosity,[1]; 308.15 K,250.45 ± 14 mPa·s
same,mass density,[1]; 308.15 K,1465.05 ± 2 kg/m3
same,viscosity,[1]; 318.15 K,138.28 ± 5.4 mPa·s
same,mass density,[1]; 318.15 K,1455.88 ± 2 kg/m3
same,viscosity,[1]; 328.15 K,83.59 ± 2.3 mPa·s
same,mass density,[1]; 328.15 K,1446.76 ± 2 kg/m3
same,viscosity,[1]; 338.15 K,54.47 ± 1.2 mPa·s
same,mass density,[1]; 338.15 K,1437.73 ± 2 kg/m3
same,viscosity,[1]; 348.15 K,37.59 ± 0.89 mPa·s
same,mass density,[1]; 348.15 K,1428.78 ± 2 kg/m3
same,viscosity,[1]; 358.15 K,27.24 ± 0.65 mPa·s
same,mass density,[1]; 358.15 K,1419.9 ± 1.9 kg/m3
same,Glass transition temperature,"[1]; Glass, DTA",-54 ± 3.8 °C
CCCCCC[n+]1ccc(C#N)cc1.O=S(=O)([N-]S(=O)(=O)C(F)(F)F)C(F)(F)F [1-hexyl-4-cyanopyridinium bis(trifluoromethylsulfonyl)imide],mass density,[1]; 298.15 K,1407 ± 1.9 kg/m3
CCCCCCC [heptane],mass density,[1]; 298.15 K,679.48 ± 1 kg/m3
same,refractive index,[2]; 298.15 K,1.38519 ± 0.00068
CCCO [propan-1-ol],mass density,[1]; 298.15 K,799.52 ± 1 kg/m3
same,refractive index,[2]; 298.15 K,1.38375 ± 0.00068
c1ccc2sccc2c1 [benzo[b]thiophene],mass density,[1]; 308.15 K,1150.55 ± 1.1 kg/m3
same,mass density,[1]; 310.15 K,1149.31 ± 1.1 kg/m3
same,mass density,[1]; 313.15 K,1146.05 ± 1.1 kg/m3
same,mass density,[1]; 318.15 K,1141.56 ± 1.1 kg/m3
same,mass density,[1]; 323.15 K,1137.07 ± 1.1 kg/m3
same,mass density,[1]; 328.15 K,1132.58 ± 1.1 kg/m3
same,mass density,[1]; 333.15 K,1128.08 ± 1.1 kg/m3
same,mass density,[1]; 338.15 K,1123.59 ± 1 kg/m3
same,mass density,[1]; 343.15 K,1119.1 ± 1 kg/m3
same,mass density,[1]; 348.15 K,1114.61 ± 1 kg/m3
same,mass density,[1]; 353.15 K,1110.11 ± 1 kg/m3
same,mass density,[1]; 358.15 K,1105.61 ± 1 kg/m3
same,mass density,[1]; 363.15 K,1101.11 ± 1 kg/m3
same,refractive index,[2]; 310.15 K,1.638 ± 0.0007

# Source: the NIST ThermoML archive (doi:10.1016/j.jct.2013.09.032)
